Results taken from patent US12213860B2, “Method for separating mammalian sperm, artificial insemination method, and in vitro fertilization method” (Hiroshima University, priority 2017, dated 2025).

Experiments:
Format in all cases: cell-based
bovine sperm [1] = assay: Percentages of X-sperm and Y-sperm in floating bovine sperm by real-time PCR
Protocol: A frozen bovine semen provided by the Oita Prefectural Agriculture, Forestry and Fisheries Research Center was used. The frozen sperm were melted, and washed with an albumin-free HTF medium. The bovine sperm were incubated in a medium prepared by adding albumin and a TLR7 ligand to HTF at 37° C., 5% CO2 for 1 hour. The TLR7 ligand used was R-848 or imiquimod R-837 (hereinafter referred to as R-837). The content of R-848 was 0 μM, 0.003 μM, 0.03 μM, 0.3 μM, or 3 μM. The content of R-837 was 0.003 μM, 0.03 μM, 0.3 μM, 3 μM, 30 μM, or 300 μM. Then, after collecting the floating sperm in the upper layer and extracting DNA, the percentages of X-sperm and Y-sperm were determined by real-time PCR.

mouse sperm [2] = assay: Percentages of X-sperm and Y-sperm in floating mouse sperm by real-time PCR; conditions: 0.3 μM treatment group
Protocol: Mouse sperm were incubated in a medium prepared by adding albumin and a TLR7 ligand to an embryo culture medium (HTF) at 37° C., 5% CO2 for 1 hour. The TLR7 ligand used was Resiquimod R-848 (hereinafter referred to as R-848). The content of R-848 was 0 μM, 0.003 μM, 0.03 μM, 0.3 μM, 1.5 μM, or 3 μM. The sperm floating in the upper layer were collected, and DNA was extracted. Then, the percentages of X chromosome-bearing sperm (hereinafter referred to as X-sperm) and Y chromosome-bearing sperm (hereinafter referred to as Y-sperm) were determined by real-time PCR (polymerase chain reaction).

mouse sperm [3] = assay: Separation of mouse sperm by hypergravity load (centrifugation) after TLR7 ligand incubation; X-/Y-sperm percentages in upper and lower layer; conditions: R-848 0.3 μM; for percentage of X-sperm in the lower layer of the medium: 30% of the lower layer; for percentage of Y-sperm in the upper layer of the medium: 30% of the upper layer
Protocol: Mouse sperm were incubated in a medium (500 μL) prepared by adding albumin and a TLR7 ligand to an embryo culture medium (HTF) at 37° C., 5% CO2 for 1 hour. The TLR7 ligand used was Resiquimod R-848 (hereinafter referred to as R-848). The content of R-848 was 0.3 μM. After 30 minutes, the media were centrifuged using a centrifuge (product name: Tabletop Micro Refrigerated Centrifuge Model 3520, produced by KUBOTA Corporation Co., Ltd.) at 37° C. for 30 minutes. The centrifugation was at a centrifugal force of 50×g, 100×g, or 500×g. For comparison, a system without centrifugation (0×g) was also prepared. After centrifugation, 150 μL of the upper layer (30% of the upper layer) of each of the media was collected, and the percentages of X-sperm and Y-sperm in each of the media were determined in the same manner as described above. In addition, 150 μL of the lower layer (30% of the lower layer) of each of the media was collected, and the percentages of X-sperm and Y-sperm in each of the media were determined in the same manner as described above.

mouse sperm [4] = assay: Mouse in vitro fertilization with washed floating sperm; XX/XY chromosomes of embryos; conditions: floating sperm from 0.3 μM treatment group
Protocol: The floating sperm in the non-treatment group and 0.3 μM treatment group were washed, and then subjected to in vitro fertilization. The percentage of in vitro fertilization embryo bearing XX chromosomes or XY chromosomes was determined.

pig sperm = assay: Percentages of X-sperm and Y-sperm in floating pig sperm by real-time PCR; conditions: R-848 0.3 μM, 2 hours
Protocol: Pig sperm were incubated in a medium prepared by adding cysteine, glycine, and a TLR7 ligand to the Modena solution at 37° C., 5% CO2, 5% O2 for 2 hours. The TLR7 ligand used was R-848. The content of R-848 was 0 μM or 0.3 μM. After collecting the floating sperm in the upper layer and extracting DNA, the percentages of X-sperm and Y-sperm were determined by real-time PCR.

mouse sperm [5] = assay: Mouse in vitro fertilization with upper and lower layer sperm separated at 50×g; 2-cell, blastocyst embryo, XX/XY chromosomes; conditions: for 2-cell (%), (number of 2-cell/number of eggs)×100 / Blastocyst embryo (%), (number of blastocyst embryos/number of 2-cell)×100 / Blastocyst embryo (number) / XX chromosomes (%) of blastocyst embryos / XX chromosomes (number) of blastocyst embryos / XY chromosomes (%) of blastocyst embryos / XY chromosomes (number) of blastocyst embryos / 2-cell (number), observed cleavages in 24 hours: R-848 0.3 μM, 50×g
Protocol: Then, the percentages of blastocyst embryos bearing XX chromosomes or XY chromosomes were determined. In addition, a sperm population obtained by incubating in the same medium as described above at 37° C. for 60 minutes without addition of the TLR7 ligand and without centrifugation (non-treatment group) was subjected to in vitro fertilization in the same manner as described above to form a blastocyst embryo. Then, the percentages of blastocyst embryos bearing XX chromosomes or XY chromosomes were determined. In the column “2-cell” in Table 3, “number” represents number of observed cleavages in 24 hours, while “%” represents “(number of 2-cell/number of eggs)×100.” In the column “blastocyst embryo,” “number” represents number of formed blastocyst embryos, while “%” represents “(number of blastocyst embryos/number of 2-cell)×100.”

bovine sperm [6] = assay: Bovine in vitro fertilization with upper layer sperm; fertilization, blastocyst rate and sexing by real-time PCR; conditions: bovine IVF, upper layer sperm from 0.03 μM R-848 treatment group
Protocol: Bovine in vitro fertilization was performed using the sperm in the upper layer rich in Y-sperm from the 0.03 μM R-848 treatment group. […] Next, sexing of the blastocyst embryos was performed by real-time PCR.

[7] = centrifugation at 100×g or more

## CC(C)Cn1cnc2c(N)nc3ccccc3c21 [R-837, imiquimod]
Bovine sperm [1]; R-837 0.03 to 30 μM treatment groups
  percentage of Y-sperm in floating sperm: ≥ 70%

## CCOCc1nc2c(N)nc3ccccc3c2n1CC(C)(C)O [R-848, resiquimod]
Mouse sperm [2]
  percentage of Y-sperm in floating sperm: ≥ 80%
Mouse sperm [3]; 0×g (without centrifugation)
  percentage of X-sperm in the lower layer of the medium: exceeding 60%
  percentage of Y-sperm in the upper layer of the medium: exceeding 80%
Mouse sperm [3]; [7]
  percentage of X-sperm in the lower layer of the medium: below 50%
  percentage of Y-sperm in the upper layer of the medium: about 60%
Bovine sperm [1]; R-848 0.03 to 0.3 μM treatment groups
  percentage of Y-sperm in floating sperm: ≥ 90%
Mouse sperm [4]
  XX chromosomes (%) of in vitro fertilization embryos: 13%
Mouse sperm [4]; 98 embryos tested
  XX chromosomes (Number) of in vitro fertilization embryos: 13
  XY chromosomes (Number) of in vitro fertilization embryos: 85
Pig sperm
  percentage of Y-sperm in floating sperm: ≥ 90%
Mouse sperm [5]; centrifugation on sperm incubated in medium supplemented with TLR7 ligand (R-848 0.3 μM, 50×g) vs non-treatment group
  effect on the fertilization function of the sperm: no effect
Mouse sperm [5]; lower layer group
  2-cell (%), (number of 2-cell/number of eggs)×100: 70%
  Blastocyst embryo (%), (number of blastocyst embryos/number of 2-cell)×100: 70%
  Blastocyst embryo (number): 48
  XX chromosomes (%) of blastocyst embryos: 81%
  XX chromosomes (number) of blastocyst embryos: 39
  XY chromosomes (%) of blastocyst embryos: 19%
  XY chromosomes (number) of blastocyst embryos: 9
Mouse sperm [5]; lower layer group, 99 eggs
  2-cell (number), observed cleavages in 24 hours: 69
Mouse sperm [5]; upper layer group
  2-cell (%), (number of 2-cell/number of eggs)×100: 79%
  Blastocyst embryo (%), (number of blastocyst embryos/number of 2-cell)×100: 73%
  Blastocyst embryo (number): 59
  XX chromosomes (%) of blastocyst embryos: 10%
  XX chromosomes (number) of blastocyst embryos: 6
  XY chromosomes (%) of blastocyst embryos: 90%
  XY chromosomes (number) of blastocyst embryos: 53
Mouse sperm [5]; upper layer group, 103 eggs
  2-cell (number), observed cleavages in 24 hours: 81
Bovine sperm [6]
  blastocyst embryo transfer rate: 64.3%
  fertilization rate: 71.7%
  male embryos (sexing of blastocyst embryos by real-time PCR): 87.8%
